# Reference: patent US20100267561A1, “HERBICIDAL PYRIDAZINONE DERIVATIVES” (priority 2007, published 2010)
# Legend:
# Test in all cases: Test E pre-/postemergence plant response
# Assay type in all cases: in vivo
# [1] = system: Italian ryegrass (Lolium multiflorum); conditions: scale 0 to 100
# Method in brief: (§1)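 Seeds were planted and treated preemergence with compound formulated in a non-phytotoxic solvent mixture containing surfactant; postemergence sprays in the same formulation went onto plants 2 to 18 cm tall (1- to 4-leaf stage). After 14 to 21 days in a greenhouse, injury versus untreated controls was rated visually, 0 (no effect) to 100 (complete control).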
# [2] = system: bermudagrass (Cynodon dactylon); conditions: scale 0 to 100
# Method in brief: as §1
# [3] = system: black mustard (Brassica nigra); conditions: scale 0 to 100
# Method in brief: as §1
# [4] = system: common chickweed (Stellaria media); conditions: Postemergence, scale 0 to 100
# Method in brief: as §1
# [5] = system: common purslane (Portulaca oleracea); conditions: scale 0 to 100
# Method in brief: as §1
# [6] = system: dallisgrass (Paspalum dilatatum); conditions: scale 0 to 100
# Method in brief: as §1
# [7] = system: goosegrass (Eleusine indica); conditions: scale 0 to 100
# Method in brief: as §1
# [8] = system: green foxtail (Setaria viridis); conditions: scale 0 to 100
# Method in brief: as §1
# [9] = system: johnsongrass (Sorghum halepense); conditions: scale 0 to 100
# Method in brief: as §1
# [10] = system: large crabgrass (Digitaria sanguinalis); conditions: scale 0 to 100
# Method in brief: as §1
# [11] = system: purple nutsedge (Cyperus rotundus); conditions: scale 0 to 100
# Method in brief: as §1
# [12] = system: southern (S.) sandbur (Cenchrus echinatus); conditions: scale 0 to 100
# Method in brief: as §1
smiles,measurement,setting,value
CCc1cc(-c2ccc(Cl)cc2)nn1-c1c(OC(=O)C(C)(C)C)cnn(C)c1=O [Compound 40],"Plant response rating, Ryegrass, Italian","[1]; 16 g ai/ha, Preemergence",98
same,"Plant response rating, Ryegrass, Italian","[1]; 31 g ai/ha, Preemergence",100
same,"Plant response rating, Ryegrass, Italian","[1]; 62 g ai/ha, Preemergence",100
same,"Plant response rating, Ryegrass, Italian","[1]; Postemergence, 8 g ai/ha",90
same,"Plant response rating, Ryegrass, Italian","[1]; Postemergence, 16 g ai/ha",90
same,"Plant response rating, Ryegrass, Italian","[1]; Postemergence, 31 g ai/ha",100
same,"Plant response rating, Ryegrass, Italian","[1]; Postemergence, 62 g ai/ha",100
same,"Plant response rating, Bermudagrass","[2]; 8 g ai/ha, Preemergence",40
same,"Plant response rating, Bermudagrass","[2]; 16 g ai/ha, Preemergence",80
same,"Plant response rating, Bermudagrass","[2]; 31 g ai/ha, Preemergence",98
same,"Plant response rating, Bermudagrass","[2]; 62 g ai/ha, Preemergence",100
same,"Plant response rating, Bermudagrass","[2]; Postemergence, 8 g ai/ha",30
same,"Plant response rating, Bermudagrass","[2]; Postemergence, 16 g ai/ha",50
same,"Plant response rating, Bermudagrass","[2]; Postemergence, 31 g ai/ha",60
same,"Plant response rating, Bermudagrass","[2]; Postemergence, 62 g ai/ha",70
same,"Plant response rating, Mustard, Black","[3]; 8 g ai/ha, Preemergence",0
same,"Plant response rating, Mustard, Black","[3]; 16 g ai/ha, Preemergence",0
same,"Plant response rating, Mustard, Black","[3]; 31 g ai/ha, Preemergence",0
same,"Plant response rating, Mustard, Black","[3]; 62 g ai/ha, Preemergence",0
same,"Plant response rating, Mustard, Black","[3]; Postemergence, 8 g ai/ha",0
same,"Plant response rating, Mustard, Black","[3]; Postemergence, 16 g ai/ha",0
same,"Plant response rating, Mustard, Black","[3]; Postemergence, 31 g ai/ha",0
same,"Plant response rating, Mustard, Black","[3]; Postemergence, 62 g ai/ha",0
same,"Plant response rating, Chickweed",[4]; 8 g ai/ha,0
same,"Plant response rating, Chickweed",[4]; 16 g ai/ha,0
same,"Plant response rating, Chickweed",[4]; 31 g ai/ha,0
same,"Plant response rating, Purslane","[5]; 16 g ai/ha, Preemergence",0
same,"Plant response rating, Purslane","[5]; 31 g ai/ha, Preemergence",0
same,"Plant response rating, Purslane","[5]; 62 g ai/ha, Preemergence",0
same,"Plant response rating, Purslane","[5]; Postemergence, 8 g ai/ha",0
same,"Plant response rating, Purslane","[5]; Postemergence, 16 g ai/ha",0
same,"Plant response rating, Purslane","[5]; Postemergence, 31 g ai/ha",0
same,"Plant response rating, Purslane","[5]; Postemergence, 62 g ai/ha",0
same,"Plant response rating, Dallisgrass","[6]; 8 g ai/ha, Preemergence",80
same,"Plant response rating, Dallisgrass","[6]; 16 g ai/ha, Preemergence",95
same,"Plant response rating, Dallisgrass","[6]; 31 g ai/ha, Preemergence",100
same,"Plant response rating, Dallisgrass","[6]; 62 g ai/ha, Preemergence",100
same,"Plant response rating, Dallisgrass","[6]; Postemergence, 8 g ai/ha",65
same,"Plant response rating, Dallisgrass","[6]; Postemergence, 16 g ai/ha",75
same,"Plant response rating, Dallisgrass","[6]; Postemergence, 31 g ai/ha",80
same,"Plant response rating, Dallisgrass","[6]; Postemergence, 62 g ai/ha",95
same,"Plant response rating, Goosegrass","[7]; 8 g ai/ha, Preemergence",75
same,"Plant response rating, Goosegrass","[7]; 16 g ai/ha, Preemergence",98
same,"Plant response rating, Goosegrass","[7]; 31 g ai/ha, Preemergence",100
same,"Plant response rating, Goosegrass","[7]; 62 g ai/ha, Preemergence",100
same,"Plant response rating, Goosegrass","[7]; Postemergence, 8 g ai/ha",65
same,"Plant response rating, Goosegrass","[7]; Postemergence, 16 g ai/ha",65
same,"Plant response rating, Goosegrass","[7]; Postemergence, 31 g ai/ha",80
same,"Plant response rating, Goosegrass","[7]; Postemergence, 62 g ai/ha",95
same,"Plant response rating, Foxtail, Green","[8]; 8 g ai/ha, Preemergence",40
same,"Plant response rating, Foxtail, Green","[8]; 16 g ai/ha, Preemergence",75
same,"Plant response rating, Foxtail, Green","[8]; 31 g ai/ha, Preemergence",98
same,"Plant response rating, Foxtail, Green","[8]; 62 g ai/ha, Preemergence",100
same,"Plant response rating, Foxtail, Green","[8]; Postemergence, 8 g ai/ha",70
same,"Plant response rating, Foxtail, Green","[8]; Postemergence, 16 g ai/ha",80
same,"Plant response rating, Foxtail, Green","[8]; Postemergence, 31 g ai/ha",95
same,"Plant response rating, Foxtail, Green","[8]; Postemergence, 62 g ai/ha",98
same,"Plant response rating, Johnsongrass","[9]; 16 g ai/ha, Preemergence",75
same,"Plant response rating, Johnsongrass","[9]; 31 g ai/ha, Preemergence",75
same,"Plant response rating, Johnsongrass","[9]; 62 g ai/ha, Preemergence",98
same,"Plant response rating, Johnsongrass","[9]; Postemergence, 8 g ai/ha",60
same,"Plant response rating, Johnsongrass","[9]; Postemergence, 16 g ai/ha",60
same,"Plant response rating, Johnsongrass","[9]; Postemergence, 31 g ai/ha",90
same,"Plant response rating, Johnsongrass","[9]; Postemergence, 62 g ai/ha",98
same,"Plant response rating, Crabgrass, Large","[10]; 8 g ai/ha, Preemergence",50
same,"Plant response rating, Crabgrass, Large","[10]; 16 g ai/ha, Preemergence",70
same,"Plant response rating, Crabgrass, Large","[10]; 31 g ai/ha, Preemergence",100
same,"Plant response rating, Crabgrass, Large","[10]; 62 g ai/ha, Preemergence",100
same,"Plant response rating, Crabgrass, Large","[10]; Postemergence, 8 g ai/ha",75
same,"Plant response rating, Crabgrass, Large","[10]; Postemergence, 16 g ai/ha",85
same,"Plant response rating, Crabgrass, Large","[10]; Postemergence, 31 g ai/ha",90
same,"Plant response rating, Crabgrass, Large","[10]; Postemergence, 62 g ai/ha",95
same,"Plant response rating, Nutsedge, Purple","[11]; 16 g ai/ha, Preemergence",0
same,"Plant response rating, Nutsedge, Purple","[11]; 31 g ai/ha, Preemergence",0
same,"Plant response rating, Nutsedge, Purple","[11]; 62 g ai/ha, Preemergence",0
same,"Plant response rating, Nutsedge, Purple","[11]; Postemergence, 8 g ai/ha",0
same,"Plant response rating, Nutsedge, Purple","[11]; Postemergence, 16 g ai/ha",0
same,"Plant response rating, Nutsedge, Purple","[11]; Postemergence, 31 g ai/ha",0
same,"Plant response rating, Nutsedge, Purple","[11]; Postemergence, 62 g ai/ha",0
same,"Plant response rating, Sandbur, S.","[12]; 16 g ai/ha, Preemergence",98
same,"Plant response rating, Sandbur, S.","[12]; 31 g ai/ha, Preemergence",100
same,"Plant response rating, Sandbur, S.","[12]; 62 g ai/ha, Preemergence",100
same,"Plant response rating, Sandbur, S.","[12]; Postemergence, 8 g ai/ha",75
same,"Plant response rating, Sandbur, S.","[12]; Postemergence, 16 g ai/ha",85
same,"Plant response rating, Sandbur, S.","[12]; Postemergence, 31 g ai/ha",95
same,"Plant response rating, Sandbur, S.","[12]; Postemergence, 62 g ai/ha",100
